Test results from patent US10532085B2, “Methods for increasing intracellular activity of Hsp70” (Orphazyme A/S, priority 2010, dated 2020).

Key:
[1] = Liposome 90° light scattering, POPS; assay type: binding; conditions: pH 6.0 vs pH 7.4
Source text: (§1) Thus, we investigated the interaction of Hsp70 with palmitoyl-oleoyl-phosphatidylcholine (POPC) large unilamellar vesicles (LUVs) containing various membrane-associated anionic lipids, i.e. palmitoyl-oleoyl-phosphatidylserine (POPS; primarily in plasma membrane), cardiolipin (primarily mitochondrial) and BMP (primarily in late endosomes/lysosomes). Taking into account the increasingly acidic milieu of the endo-lysosomal compartment upon maturation to lysosomes, we compared the protein-lipid interactions in neutral (pH 7.4) and acidic (pH 6.0) conditions. […] As reported earlier for POPS, all negatively charged lipids enhanced the binding of rHsp70 to the liposomes at neutral pH approximately 4-fold irrespective of the charge density on the liposome surface (ranging from −1 to −2).
The tryptophan fluorescence spectra (RFI) and liposome 90° light scattering (RSI) were analyzed in a HEPES buffer (20 mM HEPES, 0.1 mM EDTA, pH 7.4 or 6.0 as indicated) employing LUVs consisting of indicated lipids essentially as described in the art. For the RFI, LUVs were added in 10 μM aliquots and spectra recorded after a 20 min stabilization period. For the RSI, recombinant proteins were added in 0.12 nmol aliquots.

[2] = test system: NPC−/− mice; test: NPC1 in vivo pilot study: tissue GSLs (fluorescent HPLC)
Description: (§2) Eight treated (rHSP70) NPC^−/− versus eight control (PBS only) NPC^−/− controls. Mice were treated IP three times per week with either 10 mg/kg of rHSP70 or vehicle alone (PBS) from 3 weeks of age. Three control and three treated mice were sacrificed at 7 or 9 weeks old (i.e. after 4 or 6 weeks of treatment, respectively). Organs were perfused (PBS), weighed and frozen for biochemical and immunohistochemical analysis.
Organs were homogenised without any added buffer and frozen as 10 ul aliquots. Fresh aliquots were reconstituted to 100 ul with PBS prior to biochemical analysis. Protein determination for each aliquot was performed by BCA protein assay. Cholesterol assays were performed using the Amplex Red Cholesterol Assay from Invitrogen^i. Sphingosine was isolated by sphingoid base extraction and analysed by HPLC^i. GSLs were extracted and analysed by fluorescent HPLC^i. All results were standardised for protein content.

[3] = test system: NPC−/− mice; test: NPC1 in vivo pilot study: rearing analysis
Description: as §2
Rearing analysis was performed only at 9 and 10 weeks of age. Briefly, animals are allowed to acclimatise in an open field box. After 5′, counts are made of the activity of the mice including the number of times the animal rears in the centre of the box without support, or at the edges of the box using the walls for support.

[4] = test system: NPC−/− mice; test: NPC1 in vivo pilot study: tremor analysis; conditions: automated tremor monitor; particularly pronounced in the lowest frequency range
Description: as §2
Behavioural experiments were performed from 3 weeks of age, as described previously. Briefly, tremor analysis was performed using an automated tremor monitor (San Diego instruments) Gait analysis was performed by painting front and hind paws with non-toxic paint and allowing the mice to walk over Whatman 3M paper. Paw placement was measured to determine how closely their hind paws superimposed their front paws, the length of the stride and the width of their gait.

[5] = Surface plasmon resonance (BIAcore) BMP interaction; assay type: binding; conditions: acidic pH
Source text: as §1
In order to investigate which part of the Hsp70 protein is responsible for the BMP binding, we measured the fluorescence shift of the tryptophans upon docking of rHsp70 and its mutants into BMP-containing liposomes. […] Next, we substituted the two tryptophans in Hsp70 with phenylalanines (W90F and W580F) and studied which tryptophan is responsible for the fluorescence shift induced by lipid binding. […] A more quantitative BIAcore analysis of the BMP—rHsp70 interaction confirmed that Hsp70 interacted with BMP mainly through its ATPase domain. […]

[6] = test system: NPC−/− mice; test: NPC1 in vivo pilot study: organ weights; conditions: 10 mg/kg IP three times per week; sacrificed at 7 or 9 weeks old
Description: as §2

For “rHsp70: recombinant (human) heat shock protein 70; in some tests labelled with Alexa Fluor 488”, the “binding to POPS upon acidification” value [1] was “only slightly increased”, the “GSLs in spleen and brain” value ([2]; 7 weeks) was “reductions in spleen and brain, but are not statistically significant” and the GSLs in liver ([2]; 7 weeks, p<0.05) was “significant reduction”. The GSLs in tissues ([2]; 9 weeks) was “no significant differences”, the “fall of total GSL levels in the brain” value ([2]; at 9 weeks, compared with five-fold reduction in control mice) was “less severe” and the rearing ([3]; after 6 treatment weeks) was “no difference”. For the same substance, the “successfully completed vs failed rearing events” value ([3]; at 9 weeks, n=5 treated, n=4 control) was “only control mice failed to complete rearings”, the tremor [4] was “increased tremor from 3 weeks of treatment and remained increased until endstage” and the “interaction with BMP (BIAcore)” value [5] was “high affinity binding”. For the same substance, the organ weights [6] was “No differences”.
